Measured values taken from patent publication US8969288B2 (Indiana University Research and Technology Corporation, priority 2008, dated 2015).
Where two headings read alike, the source gives them in different places. Values belong to the molecule of their own block, whether it stands above or below them. Square brackets hold non-standard residues; d marks the D form. Side chains are listed from the residue outwards. Ends that are not written are not given here. Peptide text beside a SMILES is read from it. maleimide = maleimide activating group on PEG that reacts with a thiol-containing amino acid by Michael addition to form a thioether linkage (PEGylation); Aib = CC(C)(N)C(=O)O; Sar = CNCC(=O)O

Assays:
glucagon receptor = glucagon receptor (Homo sapiens, UniProt P47871); assay: glucagon antagonism of Class 4 peptides, cAMP production in vitro; format: cell-based; conditions: PLA at position 6 versus positions 4 and 5
Chain of glucagon receptor (P47871 26-477): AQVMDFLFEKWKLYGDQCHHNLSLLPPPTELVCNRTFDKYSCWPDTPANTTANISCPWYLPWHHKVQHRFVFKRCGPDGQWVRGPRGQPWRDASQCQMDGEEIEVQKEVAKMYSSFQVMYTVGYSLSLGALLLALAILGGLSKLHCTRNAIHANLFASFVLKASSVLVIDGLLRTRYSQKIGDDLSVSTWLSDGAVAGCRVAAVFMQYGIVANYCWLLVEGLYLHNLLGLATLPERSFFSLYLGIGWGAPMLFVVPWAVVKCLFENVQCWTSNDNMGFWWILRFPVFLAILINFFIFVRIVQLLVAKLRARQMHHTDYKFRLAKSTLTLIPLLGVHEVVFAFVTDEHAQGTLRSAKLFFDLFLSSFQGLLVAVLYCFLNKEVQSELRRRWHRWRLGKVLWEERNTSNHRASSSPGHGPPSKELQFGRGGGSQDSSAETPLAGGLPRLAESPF

GLP-1 receptor = GLP-1 receptor (Homo sapiens, UniProt P43220); assay: GLP-receptor Luciferase assay of prodrug samples incubated in PBS; format: cell-based; conditions: Table 5
Chain of GLP-1 receptor (P43220 24-463, species assumed): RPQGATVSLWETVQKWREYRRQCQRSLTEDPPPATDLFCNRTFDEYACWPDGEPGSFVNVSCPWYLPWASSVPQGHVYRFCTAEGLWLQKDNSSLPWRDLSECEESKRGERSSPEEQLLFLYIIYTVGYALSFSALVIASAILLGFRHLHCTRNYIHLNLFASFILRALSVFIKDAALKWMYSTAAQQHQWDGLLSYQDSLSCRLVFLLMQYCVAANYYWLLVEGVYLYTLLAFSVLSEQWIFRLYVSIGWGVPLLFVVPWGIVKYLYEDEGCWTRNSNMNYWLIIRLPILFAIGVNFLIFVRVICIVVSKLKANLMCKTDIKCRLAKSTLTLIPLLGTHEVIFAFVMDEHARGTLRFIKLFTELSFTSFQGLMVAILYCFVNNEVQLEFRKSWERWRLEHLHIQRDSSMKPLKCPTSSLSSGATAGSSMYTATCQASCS

[1] = Dipeptide cleavage half time in PBS on model hexapeptide (HPLC, LC-MS); format: physicochemical; conditions: for Relative peak area(%), HPLC peak a: molecular weight 702; for Relative peak area(%), HPLC peak b: molecular weight 902
Description: The hexapeptide was assembled on a peptide synthesizer.
Then it was incubated at 37° C. in a water bath. […] HPLC was used to monitor the cleavage reaction.
The flow rate was 1 mL/min.
The slope of this plot gives the rate constant I′.

glucagon antagonist potency compared with analogs having a slightly extended N-terminus (glucagon receptor): appreciably more potent antagonist
Molecule: PLA6 analog: glucagon peptide with first 5 amino acids removed and remaining N-terminal amino group replaced with a hydroxyl group (phenyl-lactic acid)

Molecule: C[C@H](O)[C@@H](NC(=O)CNC(=O)[C@@H](CCCNC(=N)N)NC(=O)[C@H](NC(=O)[C@@H](Cc1c[nH]cn1)NC(=O)CN(C)C(=O)[C@@H](N)CCCCN)[C@H](C)O)C(=O)N[C@H](Cc1ccccc1)C(N)=O [lys-sar-dHdTdRGdTdF-NH2] (H-K[Sar][dH][dT][dR]G[dT][dF]-NH2)
Relative peak area(%), HPLC peak a (5 h in plasma pH 7.4, 37° C., molecular weight 702): 17.0%
Relative peak area(%), HPLC peak b (5 h in plasma, molecular weight 902): 83.0%
Relative peak area(%), HPLC peak a (11 h in plasma): 29.2%
Relative peak area(%), HPLC peak b (11 h in plasma): 70.8%
Relative peak area(%), HPLC peak a (24 h in plasma): 60.2%
Relative peak area(%), HPLC peak b (24 h in plasma): 39.8%
Relative peak area(%), HPLC peak a (32 h in plasma): 54.0%
Relative peak area(%), HPLC peak b (32 h in plasma): 46.0%
Relative peak area(%), HPLC peak a (48 h in plasma): 27.6%
Relative peak area(%), HPLC peak b (48 h in plasma): 72.4%

EC50%/STD ratio (GLP-1 receptor; 30 h in PBS): 17.31%
EC50%/STD ratio (GLP-1 receptor; 54 h in PBS): 27.74%
EC50%/STD ratio (GLP-1 receptor; 240 h in PBS): 66.49%
EC50%/STD ratio (GLP-1 receptor; […] in PBS): 55.90%
Molecule: 40 k PEG-Aib^−1-P^0,C^24GLP(7-36): Aib^−1-P^0,C^24GLP(7-36) pegylated by maleimido-functioned 40 k Da PEG on the SH group of 24-Cys ([Aib]PHAEGTFTSDVSSYLEGQAAKEFIC([maleimide-PEG 40 kDa])WLVKGR; ends and bridges not checked)

Molecule: C[C@@H](O)[C@H](NC(=O)CNC(=O)[C@H](CCCNC(=N)N)NC(=O)[C@H](CO)NC(=O)[C@H](Cc1c[nH]cn1)NC(=O)CN(C)C(=O)[C@@H](N)CCCCN)C(=O)N[C@@H](Cc1ccccc1)C(N)=O [lys-sar-HSRGTF-NH2] (H-K[Sar]HSRGTF-NH2; N-terminus assumed)
Relative peak area(%), HPLC peak a ([1]; 5 h in PBS pH 7.4, 37° C.): 26.5%
Relative peak area(%), HPLC peak b ([1]; 5 h in PBS pH 7.4, 37° C.): 73.5%
Relative peak area(%), HPLC peak a ([1]; 8 h in PBS): 28.9%
Relative peak area(%), HPLC peak b ([1]; 8 h in PBS): 71.1%
Relative peak area(%), HPLC peak a ([1]; 24 h in PBS): 28.8%
Relative peak area(%), HPLC peak b ([1]; 24 h in PBS): 71.2%
Relative peak area(%), HPLC peak a ([1]; 31 h in PBS): 77.7%
Relative peak area(%), HPLC peak b ([1]; 31 h in PBS): 22.3%
Relative peak area(%), HPLC peak a ([1]; 47 h in PBS): 90.0%
Relative peak area(%), HPLC peak b ([1]; 47 h in PBS): 10.0%
half-life ([1]; phosphate buffered saline (PBS) buffer, pH 7.4): 14 h
